Test results published in the supplement of paper PMC10331698.
± gives the standard deviation of the averaged measurements.

Legend:
Test in all cases: level (log10 ratio to DMSO vehicle control); higher = higher biomarker level / cell amount than vehicle control
Details in all cases: in DMSO
[1] = compound: C=C(C)C(=O)OCCC(F)(F)C(F)(F)C(F)(F)C(F)(F)C(F)(C(F)(F)F)C(F)(F)F [(Perfluoro-5-methylhexyl)ethyl 2-methylprop-2-enoate]
Protocol: (§1)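 BioMAP Diversity Plus panel of 12 human primary cell co-culture systems (3C, 4H, LPS, SAg, BT, BF4T, BE3C, CASM3C, HDF3CGF, KF3CT, MyoF, Mphg). Compounds were added 1 h before stimulation and left for 24 h (MyoF 48 h; BT 72 h for soluble read-outs or 6 d for IgG). Biomarkers were read by ELISA, cytotoxicity by SRB, PBMC viability and proliferation by Alamar Blue. Each well value was divided by the mean of 8 DMSO control wells on the same plate and log10 transformed; duplicate blinded samples were tested at 4 concentrations.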

Perfluoro-1-iodohexane = compound: FC(F)(F)C(F)(F)C(F)(F)C(F)(F)C(F)(F)C(F)(F)I [Perfluoro-1-iodohexane]
Protocol: as §1

[2] = compound: FC(F)(F)C(F)(F)C(F)(F)C(F)(F)C(F)(F)CCI [1-Iodo-1H,1H,2H,2H-perfluoroheptane]
Protocol: as §1

[3] = compound: NCC(F)(F)C(F)(F)C(F)(F)C(F)(F)C(F)(F)C(F)(F)C(F)(F)F [1H,1H-Perfluorooctylamine]
Protocol: as §1

Perfluoropentanoic acid = compound: O=C(O)C(F)(F)C(F)(F)C(F)(F)C(F)(F)F [Perfluoropentanoic acid]
Protocol: as §1

[4] = compound: O=C(O)C(F)(F)C(F)(F)C(F)F [4H-Perfluorobutanoic acid]
Protocol: as §1

[5] = compound: OCC(F)(F)OC(F)(F)C(F)(F)OC(F)(F)CO [1H,1H,8H,8H-Perfluoro-3,6-dioxaoctane-1,8-diol]
Protocol: as §1

| Test System | level (log10) ([1]; 6700 nM) | level (log10) ([1]; 20000 nM) | level (log10) (Perfluoro-1-iodohexane; 6700 nM) | level (log10) (Perfluoro-1-iodohexane; 20000 nM) | level (log10) (Perfluoro-1-iodohexane; 60000 nM) | level (log10) ([2]; 6700 nM) | level (log10) ([2]; 20000 nM) | level (log10) ([2]; 60000 nM) | level (log10) ([3]; 6700 nM) | level (log10) ([3]; 20000 nM) | level (log10) ([3]; 60000 nM) | level (log10) (Perfluoropentanoic acid; 6700 nM) | level (log10) (Perfluoropentanoic acid; 20000 nM) | level (log10) (Perfluoropentanoic acid; 60000 nM) | level (log10) ([4]; 6700 nM) | level (log10) ([4]; 20000 nM) | level (log10) ([4]; 60000 nM) | level (log10) ([5]; 6700 nM) | level (log10) ([5]; 20000 nM) | level (log10) ([5]; 60000 nM) |
| --- | --- | --- | --- | --- | --- | --- | --- | --- | --- | --- | --- | --- | --- | --- | --- | --- | --- | --- | --- | --- |
| 3C:CD87/uPAR | -0.007 ± 0.0028 | -0.019 ± 0.028 | -0.0125 ± 0.032 | 0.004 ± 0.0071 | 0.0285 ± 0.0035 | -0.0105 ± 0.0092 | -0.0065 ± 0.0092 | 0.0045 ± 0.018 | -0.009 ± 0.023 | -0.017 ± 0.025 | -0.006 ± 0.0057 | -0.003 ± 0.021 | -0.0045 ± 0.021 | -0.0105 ± 0.015 | -0.0265 ± 0.0092 | -0.0065 ± 0.0092 | 0.0095 ± 0.0064 | -0.0025 ± 0.015 | 0.019 ± 0.018 | 0.0015 ± 0.0078 |
| SAg:SRB | -0.001 ± 0.0042 | -0.0105 ± 0.0078 | -0.0075 ± 0.011 | -0.002 ± 0.0014 | -0.0045 ± 0.011 | 0.0065 ± 0.011 | 0.0015 ± 0.016 | -0.001 ± 0.0085 | 0.0005 ± 0.0035 | -0.002 ± 0.014 | -0.001 ± 0.027 | -0.007 ± 0.0099 | -0.0035 ± 0.00071 | 0.0055 ± 0.015 | -0.0055 ± 0.0078 | -0.0145 ± 0.0021 | 0 ± 0.0028 | -0.0115 ± 0.012 | -0.0195 ± 0.0092 | -0.0195 ± 0.016 |
| BF4T:Keratin 8/18 | -0.024 | -0.0115 ± 0.0078 | -0.0075 ± 0.067 | -0.023 ± 0.016 | -0.015 ± 0.088 | 0.0135 ± 0.022 | -0.0085 ± 0.005 | -0.015 ± 0.0028 | -0.0065 ± 0.021 | -0.011 ± 0.014 | 0.0035 ± 0.00071 | 0.0055 ± 0.0064 | -0.002 ± 0.0085 | 0.0055 ± 0.03 | -0.027 ± 0.027 | -0.0025 ± 0.013 | 0.0035 ± 0.021 | 0.004 ± 0.0085 | -0.0075 ± 0.018 | 0.0205 ± 0.00071 |
| BT:sIL-6 | -0.0095 ± 0.025 | 0.0305 ± 0.073 | 0.0615 ± 0.0035 | 0.028 ± 0.057 | 0.039 ± 0.045 | -0.0395 ± 0.043 | 0.0425 ± 0.033 | -0.077 ± 0.0099 | 0.041 ± 0.025 | 0.02 ± 0.05 | -0.1305 ± 0.00071 | -0.0355 ± 0.1 | 0.01 ± 0.051 | 0.022 ± 0.04 | -0.008 | -0.046 ± 0.031 | -0.0915 ± 0.026 | 0.057 ± 0.0099 | 0.0215 ± 0.021 | -0.0445 ± 0.026 |
| BF4T:uPA | -0.0295 ± 0.0064 | -0.063 ± 0.0014 | -0.0075 ± 0.013 | -0.016 ± 0.024 | -0.0165 ± 0.0035 | 0.0125 ± 0.033 | 0.005 ± 0.0071 | 0.0135 ± 0.0064 | -0.0085 ± 0.012 | -0.016 ± 0.016 | -0.0155 ± 0.00071 | -0.0315 ± 0.029 | -0.031 ± 0.023 | -0.0175 ± 0.033 | 0.002 ± 0.016 | 0.019 ± 0.0014 | 0.0105 ± 0.0021 | -0.0065 ± 0.028 | -0.0065 ± 0.03 | -0.007 ± 0.03 |
| LPS:CCL2/MCP-1 | 0.009 ± 0.021 | 0.0115 ± 0.028 | -0.0025 ± 0.005 | -0.009 ± 0.0014 | 0.0015 ± 0.032 | -0.013 ± 0.013 | -0.013 ± 0.021 | -0.0045 ± 0.021 | -0.004 ± 0.031 | -0.024 ± 0.014 | -0.001 ± 0.0071 | 0.0065 ± 0.0064 | -0.0065 ± 0.00071 | 0.0225 ± 0.039 | -0.0195 ± 0.0021 | -0.007 ± 0.0042 | 0.017 ± 0.054 | -0.002 | -0.015 ± 0.0071 | 0.008 ± 0.0057 |
| BF4T:CD106/VCAM-1 | -0.012 ± 0.02 | 0.0325 ± 0.036 | -0.0055 ± 0.0035 | -0.0215 ± 0.0035 | -0.0745 ± 0.019 | -0.029 ± 0.0071 | -0.0615 ± 0.0064 | -0.11 ± 0.012 | 0.002 | 0.0045 ± 0.00071 | 0.0215 ± 0.032 | -0.0425 ± 0.036 | -0.046 ± 0.016 | 0.018 ± 0.04 | 0.0145 ± 0.033 | -0.0365 ± 0.054 | 0.028 ± 0.078 | -0.0125 ± 0.015 | -0.006 ± 0.027 | 0.0245 ± 0.053 |
| BF4T:CD54/ICAM-1 | -0.0065 ± 0.015 | -0.017 ± 0.0099 | -0.004 ± 0.0057 | 0.0045 ± 0.013 | 0 ± 0.0057 | -0.003 ± 0.0014 | -0.0215 ± 0.019 | -0.015 ± 0.0099 | 0.0025 ± 0.0021 | -0.0045 ± 0.00071 | 0.0075 ± 0.0021 | -0.0155 ± 0.0021 | -0.0135 ± 0.005 | 0.0015 ± 0.043 | 0.002 ± 0.0085 | -0.0025 ± 0.032 | 0.0075 ± 0.032 | -0.005 ± 0.0057 | 0.008 ± 0.0028 | -0.0005 ± 0.0035 |
| BT:sIL-17A | -0.19 ± 0.31 | -0.015 ± 0.15 | -0.004 ± 0.018 | -0.0905 ± 0.12 | -0.089 ± 0.2 | -0.269 ± 0.12 | 0.037 ± 0.15 | -0.22 ± 0.067 | 0.0455 ± 0.064 | -0.035 ± 0.038 | -0.184 ± 0.0071 | 0.0585 ± 0.042 | -0.0535 ± 0.0078 | 0.055 ± 0.13 | 0.067 ± 0.13 | -0.085 ± 0.02 | -0.158 ± 0.033 | 0.144 ± 0.073 | -0.0645 ± 0.022 | -0.128 ± 0.16 |
| LPS:SRB | -0.001 ± 0.0028 | -0.0085 ± 0.0021 | -0.0025 ± 0.0064 | -0.0055 ± 0.0064 | -0.0085 ± 0.00071 | -0.006 ± 0.0014 | -0.009 ± 0.014 | -0.005 ± 0.0071 | -0.0005 ± 0.0035 | -0.0025 ± 0.0092 | 0.006 ± 0.037 | 0.0015 ± 0.0078 | 0.004 | 0.003 ± 0.0085 | -0.0045 ± 0.0035 | -0.0105 ± 0.0092 | 0.003 | -0.0075 ± 0.012 | -0.0125 ± 0.0092 | -0.0205 ± 0.005 |
| BT:sIL-17F | 0.004 ± 0.15 | -0.0015 ± 0.0092 | 0.0035 ± 0.015 | 0.041 ± 0.12 | 0.0815 ± 0.061 | -0.0855 ± 0.011 | 0.0525 ± 0.033 | -0.0455 ± 0.16 | -0.033 ± 0.0071 | -0.0475 ± 0.0064 | -0.089 ± 0.017 | -0.06 ± 0.027 | -0.0325 ± 0.044 | 0.0375 ± 0.19 | -0.0445 ± 0.005 | -0.067 ± 0.17 | -0.0165 ± 0.036 | 0.045 | -0.0205 ± 0.023 | -0.137 ± 0.096 |
| BF4T:CCL26/Eotaxin-3 | -0.0125 ± 0.0064 | 0.016 ± 0.044 | 0.0255 ± 0.0035 | 0.0135 ± 0.015 | -0.0145 ± 0.059 | -0.0135 ± 0.012 | -0.0315 ± 0.0092 | -0.17 ± 0.021 | 0.0175 ± 0.049 | -0.0085 ± 0.016 | 0.037 ± 0.037 | -0.0155 ± 0.029 | -0.0165 ± 0.0092 | 0.018 ± 0.05 | -0.035 ± 0.011 | 0.0085 ± 0.0035 | -0.0115 ± 0.063 | 0.0155 ± 0.0092 | 0.005 ± 0.035 | 0.024 ± 0.044 |
| BF4T:MMP-1 | -0.0205 ± 0.0021 | -0.0095 ± 0.0021 | 0.0045 ± 0.005 | 0.0035 ± 0.0035 | 0.009 ± 0.011 | -0.001 ± 0.0057 | -0.0015 ± 0.00071 | 0.008 ± 0.013 | 0.0115 ± 0.0092 | 0.0025 ± 0.005 | 0.011 ± 0.0085 | 0 ± 0.014 | -0.005 ± 0.0057 | 0.0085 ± 0.0092 | -0.0075 ± 0.019 | 0 ± 0.034 | 0.006 ± 0.038 | 0.0115 ± 0.022 | 0.013 ± 0.028 | 0.0135 ± 0.026 |
| BE3C:HLA-DR | -0.0115 ± 0.0078 | -0.0045 ± 0.0078 | -0.003 ± 0.0028 | 0.003 ± 0.0057 | -0.009 ± 0.0028 | -0.0055 ± 0.0035 | -0.0105 ± 0.0035 | -0.0215 ± 0.0078 | -0.001 | -0.0145 ± 0.011 | -0.0065 ± 0.0092 | -0.0095 ± 0.018 | 0 ± 0.011 | 0.016 ± 0.033 | -0.023 | -0.022 ± 0.0085 | -0.0005 ± 0.028 | -0.0065 ± 0.025 | -0.009 ± 0.021 | -0.008 ± 0.0042 |
| 4H:CCL2/MCP-1 | -0.0135 ± 0.011 | 0.002 ± 0.0042 | 0.0085 ± 0.015 | -0.008 ± 0.0028 | 0.0145 ± 0.029 | 0.005 | -0.0045 ± 0.029 | 0.0325 ± 0.035 | 0.0075 ± 0.028 | -0.0195 ± 0.018 | 0.01 ± 0.044 | -0.0085 ± 0.052 | -0.047 ± 0.0042 | 0.014 ± 0.052 | -0.066 ± 0.047 | -0.0555 ± 0.029 | -0.0005 ± 0.028 | -0.037 ± 0.041 | -0.03 ± 0.013 | 0.008 ± 0.055 |
